# Reference: US20080032985A1, “4-Substituted Quinoline Derivatives, Method and Intermediates for Their Preparation and Pharmaceutical Compositions Containing Them” (priority 2004, published 2008)
# Experiments:
# [1] = test system: E. faecalis ATCC S343211 vancomycin resistant; test: MIC by dilutions in agar medium (NCCLS), Gram-positive; format: cell-based; settings: Enterococcus faecalis; at 24 hours; agar dilution
# Description: (§1) The method of dilutions in agar medium in agreement with the NCCLS recommendations is used for the determination of the minimum inhibitory concentrations (MIC) expressed in mg/l.
# (§2) The activities of the compounds of examples 5, 8, 10-13 are grouped together in the following table: […]
# [2] = test system: S. aureus IP8203 sensitive; test: as above; format: cell-based; settings: Staphylococcus aureus; at 24 hours; agar dilution
# Description: as §1, §2
# [3] = test system: S. aureus AS 5155 methicillin resistant; test: as above; format: cell-based; settings: Staphylococcus aureus; at 24 hours; agar dilution
# Description: as §1, §2
# [4] = test system: S. pneumoniae 6254-01 MLSB resistant; test: as above; format: cell-based; settings: Streptococcus pneumoniae; at 24 hours; agar dilution
# Description: as §1, §2
# [5] = test system: M. catarrhalis IPA151 sensitive; test: MIC by dilutions in agar medium (NCCLS), Gram-negative; format: cell-based; settings: Moraxella catarrhalis, IPA151SENSITIVE; at 48 hours; agar dilution
# Description: as §1, §2
# [6] = test system: H. influenzae MDK 1528 sensitive; test: as above; format: cell-based; settings: Haemophilus influenzae; at 48 hours; agar dilution
# Description: as §1, §2
MIC [1] [µg/mL],MIC [2] [µg/mL],MIC [3] [µg/mL],MIC [4] [µg/mL],MIC [5] [µg/mL],MIC [6] [µg/mL],melting point [°C],Structure (SMILES)
0.25 to 1,0.12 to 1,0.12 to 1,0.25 to 0.5,0.5 to 4,2 to 8,–,"COc1ccc2ncc(F)c(CCCC(CNC/C=C/c3cc(F)ccc3F)C(=O)O)c2c1 (racemic) [Example 5, (RS)-2-{[(E)-3-(2,5-difluorophenyl)allylamino]methyl}-5-(3-fluoro-6-methoxyquinolin-4-yl)pentanoic acid]"
0.25 to 1,0.12 to 1,0.12 to 1,0.25 to 0.5,0.5 to 4,2 to 8,–,"COc1ccc2ncc(F)c(CCCC(CNCCCc3cc(F)ccc3F)C(=O)O)c2c1 (racemic) [Example 8, (RS)-2-{[3-(2,5-difluorophenyl)propylamino]methyl}-5-(3-fluoro-6-methoxyquinolin-4-yl)pentanoic acid]"
0.25 to 1,0.12 to 1,0.12 to 1,0.25 to 0.5,0.5 to 4,2 to 8,–,"COc1ccc2ncc(F)c(CCCC(CN(C)C/C=C/c3cc(F)ccc3F)C(=O)[O-])c2c1.[Na+] (racemic) [Example 10, Sodium (RS)-2-({N-[(E)-3-(2,5-difluorophenyl)allyl]-N-methylamino}methyl)-5-(3-fluoro-6-methoxyquinolin-4-yl)pentanoate]"
0.25 to 1,0.12 to 1,0.12 to 1,0.25 to 0.5,0.5 to 4,2 to 8,–,"COc1ccc2ncc(F)c(CCCC(CNCCSc3cccs3)C(=O)O)c2c1 (racemic) [Example 11, (RS)-5-(3-Fluoro-6-methoxyquinolin-4-yl)-2-{[2-(thiophen-2-ylsulfanyl)ethylamino]methyl}pentanoic acid]"
0.25 to 1,0.12 to 1,0.12 to 1,0.25 to 0.5,0.5 to 4,2 to 8,–,"COc1ccc2ncc(F)c(CCCC(CNCCSc3cc(F)ccc3F)C(=O)O)c2c1 (racemic) [Example 12, (RS)-2-{[2-(2,5-Difluorophenylsulfanyl)ethylamino]-methyl}-5-(3-fluoro-6-methoxyquinolin-4-yl)pentanoic acid]"
0.25 to 1,0.12 to 1,0.12 to 1,0.25 to 0.5,0.5 to 4,2 to 8,–,"COc1ccc2ncc(F)c(CCCC(CNCCOc3cc(F)ccc3F)C(=O)O)c2c1 (racemic) [Example 13, (RS)-2-{[2-(2,5-Difluorophenoxy)ethylamino]methyl}-5-(3-fluoro-6-methoxyquinolin-4-yl)pentanoic acid]"
–,–,–,–,–,–,120,"COc1ccc2ncc(F)c(CCCC(CN(C/C=C/c3cc(F)ccc3F)CCF)C(=O)O)c2c1 (racemic) [Example 14, (RS)-2-{[N-[(E)-3-(2,5-difluorophenyl)allyl]-N-(2-fluoroethyl)amino]methyl}-5-(3-fluoro-6-methoxy-quinolin-4-yl)pentanoic acid]"
–,–,–,–,–,–,168,"COc1ccc2ncc(F)c(CCCC(CNC/C=C/c3cc(F)ccc3F)C(=O)O)c2c1 (single isomer, unassigned) [Example 6, 2-{[(E)-3-(2,5-difluorophenyl)allylamino]methyl}-5-(3-fluoro-6-methoxyquinolin-4-yl)pentanoic acid]"
–,–,–,–,–,–,166,"COc1ccc2ncc(F)c(CCCC(CNC/C=C/c3cc(F)ccc3F)C(=O)O)c2c1 (single isomer, unassigned) [Example 7, 2-{[(E)-3-(2,5-difluorophenyl)allylamino]methyl}-5-(3-fluoro-6-methoxyquinolin-4-yl)pentanoic acid]"
